From article PMC7901699, “Challenging inflammatory process at molecular, cellular and in vivo levels via some new pyrazolyl thiazolones” (Journal of Enzyme Inhibition and Medicinal Chemistry, 2021) come the findings set out here.

“Also recorded” adds a separate entry of the source.

One assay concerns the target T1, ovine COX-1 (Ovis aries, UniProt P05979).
T1 construct: purchased Cayman Chemicals Inc. 560131
T1 sequence (P05979 25-600): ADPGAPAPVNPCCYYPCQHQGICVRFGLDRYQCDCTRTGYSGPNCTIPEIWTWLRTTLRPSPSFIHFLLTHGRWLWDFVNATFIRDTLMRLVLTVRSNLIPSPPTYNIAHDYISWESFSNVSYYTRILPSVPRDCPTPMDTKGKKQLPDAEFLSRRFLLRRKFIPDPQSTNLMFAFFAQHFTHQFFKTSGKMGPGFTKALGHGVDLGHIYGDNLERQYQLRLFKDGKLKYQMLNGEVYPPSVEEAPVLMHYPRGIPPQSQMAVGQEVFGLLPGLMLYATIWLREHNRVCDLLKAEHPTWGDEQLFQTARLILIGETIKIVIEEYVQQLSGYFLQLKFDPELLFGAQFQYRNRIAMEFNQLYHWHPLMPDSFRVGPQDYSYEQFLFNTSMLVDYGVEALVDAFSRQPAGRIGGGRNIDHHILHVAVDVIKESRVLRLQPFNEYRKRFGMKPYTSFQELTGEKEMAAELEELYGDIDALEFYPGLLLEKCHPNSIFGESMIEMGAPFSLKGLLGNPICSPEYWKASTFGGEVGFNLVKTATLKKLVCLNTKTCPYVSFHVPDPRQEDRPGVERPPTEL
Put plainly: In vitro COX-1 inhibition assay (colorimetric COX inhibitor screening kit, Cayman). The class given is biochemical. To be noted: mean of three determinations. The method, then:
Both assays were carried out in compliance with the manufacturer’s instructions and in accordance to prior studies[29]^,[33].
IC50 values (μM) and selectivity indices (SI) were calculated.

Another assay relates to THP-1 cells. Put plainly: Monocyte-to-macrophage differentiation assay, M1 polarisation (PMA then LPS). The class given is cell-based, human. The protocol:
Monocytes were cultured and differentiated as described previously. THP-1 cells (human acute monocytic leukaemia lineage, American Type Culture Collection, Manassas, VA) were seeded at a density of 20 × 10^5 cells/ml. A set of cells were exposed to 25 nM of phorbol myristate-acetate (PMA, Calbiochem, Darmstadt, Germany) for 24 h to drive differentiation. Another set was similarly treated with PMA followed by 100 ng/ml of lipopolysaccharide (LPS, invivogen, San Diego, CA, USA) for 72 h. After incubation, the supernatant was aspirated and the density of the adherent cells was estimated using MTS colorimetric cell viability kit (Abcam, Cambridge, UK). The inhibitory actions of different compounds on the differentiation process were evaluated by pre-incubation with different concentrations of each compound for 6 h. Cell viability after treatment was normalised to the reading after PMA exposure following a 6-h incubation with DMSO. All experiments were conducted in triplicates. A positive control for the effect of COX1/COX2 inhibition on monocyte-to-macrophage differentiation was obtained by treatment with diclofenac. IC50 values for each compound were determined by non-linear regression as the best fit values of the log [inhibitor] vs. response curve using GraphPad Prism software.

With `COc1ccc(-c2nn(-c3ccccc3)cc2/C=C2\SC(N3CCCCC3)=NC2=O)cc1` [Compound 7, (Z)-5-((3-(4-methoxyphenyl)-1-phenyl-1H-pyrazol-4-yl)methylene)-2-(piperidin-1-yl)thiazol-4(5H)-one], the half-maximal inhibitory concentration (IC50) stood at 10.3 µM against ovine COX-1 and 15 µM in the assay with THP-1 cells (Homo sapiens, THP-1, 6 h pre-incubation, PMA 25 nM 24 h then LPS 100 ng/ml 72 h, MTS, read-out: IC50 inhibition of THP-1 monocyte differentiation into M1 macrophages). Also, in the assay on THP-1 cells (PMA then LPS, diclofenac as reference), the “Inhibition of THP-1 differentiation into M1 macrophages (in words)” value is “potent inhibitory effects on monocyte-to-macrophage differentiation; also recorded: higher potency compared to diclofenac”.

The IC50 is the concentration needed to halve the response being measured.
